According to patent US10766914B2, “DNA alkylating agents” (OBI PHARMA, INC., priority 2015, dated 2020):

Experiments:
H460 cells = assay: Proliferation assay in H460 cells (2 hr exposure, AlamarBlue); type: cell-based, human; details: Homo sapiens, NCI-H460, 2 hrs exposure, wash, 70 hrs growth, read-out: IC 50 in proliferation assay in H460 cells
Protocol: In vitro proliferation data on the H460 […] human tumor cell line is reported above in the compound table.
Specifically, exponentially growing cells were seeded at a density of 4×10^3 cells per well in a 96 well plate and incubated at 37° C. in 5% CO2, 95% air and 100% relative humidity for 24 hours prior to addition of test compounds. Compounds were solubilized in 100% DMSO at 200 times the desired final test concentration. At the time of drug addition, compounds were further diluted to 4 times the desired final concentration with complete medium. Aliquots of 50 μl of compound at specified concentrations were added to microtiter wells already containing 150 μl of medium, resulting in the final drug concentration reported. After drug addition, the plates were incubated for an additional 2 hours at 37° C., 5% CO2, 95% air, and 100% relative humidity, then the drug was washed off and fresh medium was added and the plates were incubated for addition 70 hrs at 37° C., 5% CO2, 95% air and 100% relative humidity. At the end of this incubation, the viable cells were quantified using the AlamarBlue assay. The drug concentration resulting in growth inhibition of 50% (IC50) was calculated using Prism software (Irvine, Calif.), and the results were listed in the table.

[1] = Pharmacokinetics in CD-1 mice following a single intraperitoneal dose (parent and TH2660); details: mouse, in vivo, ip, parent compound
Protocol: The pharmacokinetics of TH2873, TH2883, TH2888, TH2890, TH2901 and TH2926 were determined in CD-1 mice following a single intraperitoneal dose.
The pharmacokinetics of TH2660, the active metabolite, following a single intraperitoneal dose of TH2873, TH2883, TH2888, TH2890, TH2901 and TH2926 are shown below.

[2] = Example 4-C body weight change, A375 xenograft study; type: in vivo, female nude mice (nu/nu); details: qd × 5 × 2, ip
Protocol: (§1) Cells were mixed with Matrigel (50% with exception for 30% in the H460) and 0.2 ml per mouse were subcutaneously implanted to the flank area of the animals. When tumor size reached 100-150 250 mm3, mice were randomized into experimental or vehicle groups with 10 mice/group and treatment was started (Day 1). The tested compounds were formulated in 5% DMSO in D5W. The regimens employed in the examples include IP, QD×5/wk (5 days on, 2 days off) as one cycle, for a total of 2 cycles; IP, once; IP, weekly for total 3 weeks; and IV, weekly for 3 weeks. Tumor growth and body weight were measured twice a week. Tumor volume was calculated as (length×width2)/2. Drug efficacy was assessed as Tumor Growth Inhibition (TGI) and Tumor Growth Delay (TGD). TGI was defined as (1−ΔT/ΔC)×100, where ΔT/ΔC presented the ratio of the change in mean (or median, if variation within the group was relatively large) tumor volume of the treated group and of the control group. TGD was calculated as the extra days for the treated tumor to reach 500 mm3 or 1000 mm3 as compared to the control group. Animals were culled when individual tumor size reached over 2000 mm3 or mean tumor volume exceeded 1000 mm3 in the group. Data are expressed as the mean±SEM. One-way analysis of variance with Dunnett post comparison test (GraphPad Prism 4) or two-tailed student's t-test were used for analysis. A P level <0.05 was considered statistically significant.
his study employed an A375 melanoma human tumor xenograft model and various compounds provided herein were compared to thiotepa and the approved anti melanoma drug, nab-Paclitaxel. The antitumor effects and the safety of administration are graphically illustrated below.

[3] = test system: A375 melanoma human tumor xenograft; assay: Example 4-C antitumor efficacy, ectopic A375 melanoma xenograft model; type: in vivo, female nude mice (nu/nu); details: qd × 5 × 2, ip
Excerpt: (§2) Specific pathogen-free homozygous female nude mice (nu/nu, Charles River Laboratories) were used. Mice were given food and water ad libitum and housed in microisolator cages. Four to six week old animals were identified by microchips (Locus Technology, Manchester, Md., USA) at the time of the experiments. All animal studies were approved by the Institutional Animal Care and Use Committee at Threshold Pharmaceuticals, Inc.
(§3) All cell lines were from the American Type Culture Collection (ATCC, Rockville, Md., USA).
as §1
his study employed an A375 melanoma human tumor xenograft model and various compounds provided herein were compared to thiotepa and the approved anti melanoma drug, nab-Paclitaxel.

[4] = test system: A 549 non-small cell lung xenograft; assay: Example 4-B antitumor efficacy, ectopic A549 NSCLC xenograft model; type: in vivo, female nude mice (nu/nu)
Excerpt: as §2, §3, §1
The dosing was as follows. Daily IP dosing: 5 doses then 2 days off then 5 more doses starting at 110 mm^3 tumors on day 1 (10 animals per group average tumor volume).
Doses were selected by first doing a toxicity test in CD1 mice as described above. The compounds were tested against Thio-tepa.

[5] = Example 4-B body weight change, A549 xenograft study; type: in vivo, female nude mice (nu/nu)
Protocol: as §1
Antitumor effects of compounds provided herein were determined on A 549 non-small cell lung xenograft model in comparison with a chemotherapy agent, thiotepa. The dosing was as follows. Daily IP dosing: 5 doses then 2 days off then 5 more doses starting at 110 mm^3 tumors on day 1 (10 animals per group average tumor volume). The antitumor effects and the safety of administration are graphically illustrated below.

[6] = Example 4-D body weight change and lethal toxicity, A549 xenograft study; type: in vivo, female nude mice (nu/nu); details: for Lethal Tox: 10 animals per group
Protocol: as §1
(§4) The compounds were tested in another A549 model. The compounds were dosed as follows. Daily IP dosing: 5 doses then 2 days off then 5 more doses starting at 100 mm^3 tumors on day 1 (10 animals per group average tumor volume). The antitumor effects and the safety of administration are graphically illustrated below.

A549 NSCLC xenograft = assay: Example 4-D antitumor efficacy, ectopic A549 NSCLC xenograft model; type: in vivo, female nude mice (nu/nu)
Excerpt: as §2, §3, §1, §4

[7] = 1.25 mg/kg ip QD × 5/wk × 2 wks

COc1ccc(Oc2cc(C(C)OP(=O)(N3CC3)N3CC3)ccc2[N+](=O)[O-])cc1 (stereo not shown) [Compound 2873]
IC50 (H460 cells): 5 nM | AUC [1]: 2100 ng·h/mL | Cmax [1]: 8430 ng/mL | Tmax [1]: 5 min | half-life [1]: 8.81 min | Max. BW loss % ([2]; 40 mpk): 0% | TGD 500 ([3]; 40 mpk): 12 days | TGD 1000 ([3]; 40 mpk): 11 days | inhibition in vivo at 40 mg/kg ([3]; Mus musculus, A-375, 40 mpk, read-out: TGI): 65%

O=[N+]([O-])c1ccc(COP(=O)(N2CC2)N2CC2)cc1Oc1ccccc1 [Compound 2850]
IC50 (H460 cells): 20 nM | TGD 500 ([4]; 10 mg/kg ip QD × 5/wk × 2 wks): 70 days | TGI ([4]; 10 mg/kg ip QD × 5/wk × 2 wks): 94.3% | TGD 500 ([4]; 20 mg/kg ip QD × 5/wk × 2 wks): >72 days | TGI ([4]; 20 mg/kg ip QD × 5/wk × 2 wks): 88.1% | Max. BW loss % ([5]; 10 mg/kg ip QD × 5/wk × 2 wks): 0.9% | Max. BW loss % ([5]; 20 mg/kg ip QD × 5/wk × 2 wks): 7.4% | Max. BW loss % ([2]; 10 mpk): 2.8% | TGD 500 ([3]; 10 mpk): -2 days | TGD 1000 ([3]; 10 mpk): 0 days | inhibition in vivo at 10 mg/kg ([3]; Mus musculus, A-375, 10 mpk, read-out: TGI): 2.7%

S=P(N1CC1)(N1CC1)N1CC1 [Thio-TEPA, thiotepa, reference compound]
TGD 500 [4, 7]: 17 days | TGI [4, 7]: 56.1% | TGD 500 ([4]; 2.5 mg/kg ip QD × 5/wk × 2 wks): 26 days | TGI ([4]; 2.5 mg/kg ip QD × 5/wk × 2 wks): 68.3% | Max. BW loss % [5, 7]: 0.0% | Max. BW loss % ([5]; 2.5 mg/kg ip QD × 5/wk × 2 wks): 0.4% | Max. BW loss % ([2]; 2.5 mpk): 0% | TGD 500 ([3]; 2.5 mpk): 3 days | TGD 1000 ([3]; 2.5 mpk): 2 days | inhibition in vivo at 2.5 mg/kg ([3]; Mus musculus, A-375, 2.5 mpk, read-out: TGI): 16.6%

CC(OP(=O)(N1CC1)N1CC1)c1ccc([N+](=O)[O-])c(Oc2ccc3ncccc3c2)c1 (stereo not shown) [Compound 2952]
IC50 (H460 cells): 3 nM | Max. BW loss % ([6]; 20 mg/kg IP QD × 5/wk × 2 wks): 1.2% | Lethal Tox ([6]; 20 mg/kg IP QD × 5/wk × 2 wks): 1 | TGD 500 (A549 NSCLC xenograft; 20 mg/kg IP QD × 5/wk × 2 wks): 70 days | TGI (A549 NSCLC xenograft; 20 mg/kg IP QD × 5/wk × 2 wks): 91.8%

CC(OP(=O)(N1CC1)N1CC1)c1ccc([N+](=O)[O-])c(Oc2ccc3ccccc3c2)c1 (stereo not shown) [Compound 2955]
IC50 (H460 cells): 6 nM | Max. BW loss % ([6]; 40 mg/kg IP QD × 5/wk × 2 wks): 0.6% | Lethal Tox ([6]; 40 mg/kg IP QD × 5/wk × 2 wks): 1 | TGD 500 (A549 NSCLC xenograft; 40 mg/kg IP QD × 5/wk × 2 wks): 47 days | TGI (A549 NSCLC xenograft; 40 mg/kg IP QD × 5/wk × 2 wks): 78.9%

CC(OP(=O)(N1CC1)N1CC1)c1ccc([N+](=O)[O-])c(Oc2ccc(S(C)(=O)=O)cc2)c1 (stereo not shown) [Compound 2883]
IC50 (H460 cells): 30 nM | AUC [1]: 9080 ng·h/mL | Cmax [1]: 7570 ng/mL | Tmax [1]: 15 min | half-life [1]: 23.4 min | Max. BW loss % ([6]; 10 mg/kg IP QD × 5/wk × 2 wks): 15.8% | Lethal Tox ([6]; 10 mg/kg IP QD × 5/wk × 2 wks): 5 | TGD 500 (A549 NSCLC xenograft; 10 mg/kg IP QD × 5/wk × 2 wks): >85 days | TGI (A549 NSCLC xenograft; 10 mg/kg IP QD × 5/wk × 2 wks): 93.5%
